# Columns and labels:
# [1] = system: oedema induced by TPA (phorbol 12-myristate-13-acetate) on mouse ear; test: Model of acute inflammation on mouse ear: oedema induced by TPA; format: in vivo; details: for inhibition of the TPA-induced inflammation: concentration of 1%, TPA test in mice; for IC50 (concentration at which 50% inhibition of the oedema induced by TPA alone is observed): applied with 0.01% TPA in ethanol, oedema measured 6 hours after application
# Experimental: The anti-inflammatory activities of the compound of formula (I) in racemic form, of metronidazole and of flurbiprofen (racemic) were measured in an in vivo test performed on a mouse model.
# The model used is the model of mouse ear inflammation induced by a single application of TPA (phorbol 12-myristate-13-acetate). Female Balb/c ByJlco mice are used.
# The oedema is induced by applying to the ear 20 μl of 0.01% TPA dissolved in ethanol.
# The racemic compound of formula (I) is dissolved, at the desired concentration, in the 0.01% TPA solution and thus applied to a group of mice at the same time as the TPA.
# Similarly, flurbiprofen (racemic) is dissolved, at the desired concentration, in the 0.01% TPA solution and thus applied to another group of mice at the same time as the TPA.
# Finally, metronidazole is dissolved, at the desired concentration, in the 0.01% TPA solution and thus applied to another group of mice at the same time as the TPA.
# The oedema is evaluated, 6 hours after application, by measuring the thickness of the ear using an Oditest® micrometer.
# The TPA-induced oedema is evaluated relative to the ethanol vehicle group. The inhibition, with the racemic compound of formula (I), with flurbiprofen (racemic) or with metronidazole, of the oedema induced by TPA alone is expressed by the IC50.
# The IC50 corresponds to the concentration (or dose) at which 50% inhibition of the oedema induced by TPA alone is observed.
# [2] = system: oedema induced by arachidonic acid (AA) on mouse ear; test: Model of acute inflammation on mouse ear: arachidonic acid-induced oedema; format: in vivo; details: for IC50 (concentration at which 50% inhibition of the oedema induced by AA alone is observed): topical on mouse ear, oedema measured 1 hour after application, % weight per volume of solution
# Experimental: The anti-inflammatory activities of the compound of formula (I) in racemic form, of the S enantiomer of the compound of formula (I), of metronidazole and of flurbiprofen were measured in an in vivo test performed on a mouse model. This model consists in inducing inflammation of the mouse ear with a single application of arachidonic acid (AA). Female Balb/c ByJlco mice are used. The oedema is induced by applying to the mouse's ear 20 μL of AA dissolved to 4% in a 1/1 THF/methanol mixture. The anti-inflammatory activities of the S enantiomer of the compound of formula (I), of the compound of formula (I) in racemic form, of metronidazole and of flurbiprofen were evaluated after topical application onto the inner face of the mouse's ear of 20 μL of a solution of the compound in a 1/1 THF/methanol mixture containing 4% AA.
# Solutions containing 0.01%; 0.03%; 0.1%; 0.3%; 1% and 2% of the test compound are thus prepared. The percentages correspond to the weight of the test compound per volume of solution. The oedema is evaluated, 1 hour after application, by measuring the thickness of the ear using an Oditest® micrometer. The oedema induced by AA alone is evaluated, 1 hour after application, by measuring the thickness of the ear using an Oditest® micrometer. It is evaluated relative to a group comprising only the vehicle (1/1 THF/methanol).
# The inhibition of the oedema is expressed as a percentage of reduction, by the test molecule and at the test concentration, of the oedema induced by AA alone.
# The IC50 corresponds to the concentration (or dose) at which 50% inhibition of the oedema induced by AA alone is observed.
# [3] = system: human neonatal keratinocytes; test: Stability on keratinocyte cultures; format: in vitro ADME; details: human keratinocyte cultures
# Experimental: (§1) The stability on keratinocyte cultures is evaluated using human neonatal keratinocytes (Cell'N Tech) cultured in a 75 cm^2 flask and detached at 90-100% of confluence with vegetable trypsin (trypLE GIBCO). The compound of formula (I) was tested at 2 μM in the medium CNT-057 (Cell'N Tech) supplemented with 0.1% pluronic acid in 24-well plates. The final DMSO concentration is 0.1%. Degradation kinetics are performed with a Tecan EVO robot over 24 hours. The samples taken are then assayed by LC/MS/MS (Micromass) in comparison with a calibration range of the test product, prepared under the same conditions as the samples (⅓ culture medium and ⅔ methanol). The chromatographic conditions are optimized for each product. An assay of the appearance of metronidazole is also performed using these same samples.
# [4] = Stability on keratinocyte cultures; format: in vitro ADME, human; details: 2 μM, human neonatal keratinocyte culture, kinetics over 24 hours, LC/MS/MS; read-out: half-life time (t1/2) (converted)
# Experimental: as §1
smiles,measurement,setting,value
Cc1ncc([N+](=O)[O-])n1CCOC(=O)[C@H](C)c1ccc(-c2ccccc2)c(F)c1 [2-(2-methyl-5-nitroimidazol-1-yl)ethyl (R)-2-(2-fluorobiphenyl-4-yl)propionate],inhibition of the TPA-induced inflammation,[1],85%
"CC(C(=O)O)c1ccc(-c2ccccc2)c(F)c1 (racemic) [flurbiprofen (racemic), flurbiprofen]",IC50 (concentration at which 50% inhibition of the oedema induced by TPA alone is observed),[1],0.22%
same,inhibition of the oedema induced by AA alone,"[2]; dose of 0.1%, topical, 1 hour after application",60%
same,IC50 (concentration at which 50% inhibition of the oedema induced by AA alone is observed),[2],0.037%
Cc1ncc([N+](=O)[O-])n1CCOC(=O)c1cc(-c2ccc(F)cc2F)ccc1O [metronidazole ester with diflunisal],hydrolysis / stability of the ester on keratinocyte cultures,[3],do not become hydrolysed
Cc1ncc([N+](=O)[O-])n1CCO [metronidazole],anti-inflammatory activity,"[1]; TPA-induced mouse ear oedema, result in words",no anti-inflammatory activity
same,anti-inflammatory activity,"[2]; AA-induced mouse ear oedema, result in words",no anti-inflammatory activity
COc1ccc2c(c1)c(CC(=O)OCCn1c([N+](=O)[O-])cnc1C)c(C)n2C(=O)c1ccc(Cl)cc1 [metronidazole ester with indomethacin],hydrolysis / stability of the ester on keratinocyte cultures,[3],do not become hydrolysed
Cc1ncc([N+](=O)[O-])n1CCOC(=O)c1cccnc1Nc1cccc(C(F)(F)F)c1 [metronidazole ester with niflumic acid],hydrolysis / stability of the ester on keratinocyte cultures,[3],do not become hydrolysed
Cc1ncc([N+](=O)[O-])n1CCOC(=O)C(C)c1ccc(-c2ccccc2)c(F)c1 (racemic) [2-(2-methyl-5-nitroimidazol-1-yl)ethyl 2-(2-fluorobiphenyl-4-yl)propionate],IC50 (concentration at which 50% inhibition of the oedema induced by TPA alone is observed),[1],0.22%
same,hydrolysis / stability of the ester on keratinocyte cultures,[3],specifically cleaved in keratinocytes
same,half-life at 2 μM,[4],6 h
same,anti-inflammatory activity compared with flurbiprofen,"[2]; dose of 1%, AA-induced mouse ear oedema, result in words",equivalent to that of flurbiprofen (racemic) at the 0.1% dose
Cc1ncc([N+](=O)[O-])n1CCOC(=O)C1CCn2c(C(=O)c3ccccc3)ccc21 (stereo not shown) [metronidazole ester with ketorolac],hydrolysis / stability of the ester on keratinocyte cultures,[3],do not become hydrolysed
C[C@H](C(=O)O)c1ccc(-c2ccccc2)c(F)c1 [(S)-flurbiprofen],inhibition of the TPA-induced inflammation,[1],70%
C[C@@H](C(=O)O)c1ccc(-c2ccccc2)c(F)c1 [(R)-flurbiprofen],inhibition of the TPA-induced inflammation,[1],80%
Cc1ncc([N+](=O)[O-])n1CCOC(=O)[C@@H](C)c1ccc(-c2ccccc2)c(F)c1 [2-(2-methyl-5-nitroimidazol-1-yl)ethyl (S)-2-(2-fluorobiphenyl-4-yl)propionate],inhibition of the TPA-induced inflammation,[1],95%
same,half-life at 2 μM,[4],18 h
same,IC50 (concentration at which 50% inhibition of the oedema induced by AA alone is observed),[2],1%
